Data from patent US20260167659A1, “STING AGONISTS” (LIGACHEM BIOSCIENCES INC., priority 2022, published 2026).

Legend:
hSTING-WT (R232) = target: T1, hSTING-WT (R232) (Homo sapiens, UniProt Q86WV6, H232R); experiment: STING activation, THP1-Dual IRF3 reporter assay, hSTING-R232 cells; type: cell-based; conditions: IRF3 luciferase reporter, 24 hours, read-out: STING activity using hSTING-R232 cells EC50
T1 construct: host or cells: THP1-Dual cells (human monocytes) with knocked-in hSTING R232
Summary of the method: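 THP1-Dual monocytes carrying knocked-in hSTING-WT (R232), H232 or HAQ variants were seeded at 9.0×10^4 cells per well and treated next day with serially diluted compounds for 24 h. Secreted IRF-Lucia luciferase in the supernatant was read by luminescence, and EC50 values were fitted with a 4-parameter model.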

hSTING H232 variant = target: T2, hSTING H232 variant (Homo sapiens, UniProt Q86WV6); experiment: STING activation, THP1-Dual IRF3 reporter assay, hSTING-H232 cells; type: cell-based; conditions: IRF3 luciferase reporter, 24 hours, read-out: STING activity using hSTING-H232 cells, H232 EC50
T2 construct: host or cells: THP1-Dual cells (human monocytes) with knocked-in hSTING H232
Procedure: To assess potency of STING agonist compounds described herein, THP1-Dual™ Cells (NF—KB-SEAP and IRF-Lucia luciferase reporter monocytes, InvivoGen) were used. The reporter cells were knocked-in either of hSTING-WT (R232, #thpd-r232), HAQ variant (#thpd-nfis), or H232 variant (#thpd-h232). All cells were cultured at 37° C. in a humidified incubator at 5% CO2 and maintained in RPMI 1640 medium (Gibco, #22400097) supplemented with 10% heat-inactivated FBS and 1×Pen-Strep (Gibco, #15140122). To measure STING agonist-mediated IRF3 activity, the cells (9.0×10^4 cells per well) were seeded in a flat-bottomed 96-well plate. The next day, the cells were treated with compounds in a serial dilution for 24 hours. Subsequently, 20 μL of the cell culture supernatant and 50 μL of the QUANTI-Luc™ reagent (InvivoGen, #rep-qlc) were mixed in a 96-well white plate and then, luciferase activity was measured using an EnVision Xcite multilabel reader. The data were analyzed using Prism8 software (4-parameter).
The potency of STING agonist compounds was evaluated by the activation of Type I Interferon pathway using THP-1 IRF3 reporter assay.

Human THP-1 cells = experiment: THP-1 activation, CD86 and HLA-DR by flow cytometry; type: cell-based; conditions: THP-1, 5-fold serial dilution from 1 μM, 48 hours
Procedure: To test the effect of STING agonist compounds described herein in the activation of innate and adaptive immune cells, flow cytometry (FACS) was performed. Human THP-1 cells (Korean Cell Line Bank, #40202) and PBMCs were seeded at 1.2×10^5 cells per well in a round-bottomed 96-well plate in RPMI 1640 medium (Gibco, #22400097) supplemented with 10% heat-inactivated FBS and 1× Antibiotic-Antimycotic (Gibco, #15240062) and rested for 24 hours at 37° C. The cells were stimulated with the STING agonist compounds as described; For THP-1 stimulation, the cells were treated with the STING agonist compound (Compound 313) in a 5-fold serial dilution from 1 μM for 48 hours. The induction of cell surface activation markers, CD86 (co-stimulatory molecule) and HLA-DR (MHC-class II), was measured by flow cytometry. […] For flow cytometry analysis, the stimulated cells were centrifuged at 300 g for 5 minutes at 4° C., and then resuspended in FACS buffer (2% FBS, 2 mM EDTA in PBS). […] Subsequently, the cells were stained with fluorescence-conjugated antibodies against CD8, CD3, CD56, and CD69 for CD8 T and NK cells activation and against CD86 and MHC-II for THP-1 naïve cells activation for 40 minutes at 4° C. After washing three times with FACS buffer, the cells were resuspended in FACS buffer and analyzed by FACSlyric (BD bioscience). The data were analyzed with Flowjo 9.0 software (BD bioscience).

[1] = Normal cell cytotoxicity in PBMCs, CellTiter-Glo; type: cell-based; conditions: human, read-out: In vitro cell cytotoxicity in PBMCs CC50
Summary of the method: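 PBMCs at 8.0×10^4 cells/well in RPMI 1640 with 10% FBS were rested 24 h at 37 °C. Cells were then exposed to the STING agonists for 72 h. Viability was read by CellTiter-Glo luminescence and expressed as percentage cell death.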

EMT6 cells = experiment: In vivo efficacy, EMT6 syngeneic mouse model; design: species or system BALB/c mice; conditions: FIG. 12
Procedure: Female BALB/c mice (KOTECH, South Korea) with 6 weeks of age, were used for all studies that were completed under the approval of the Legochembio Science's Institutional Animal Care and Use Committee (IACUC). CT26 or EMT6 cells (American Type Culture Collection (ATCC), #CRL-2638, #CRL-2755) were maintained in RPMI 1640 medium (Gibco, #22400097) supplemented with 10% heat-inactivated FBS and 1× Antibiotic-Antimycotic (Gibco, #15240062) at 37° C. with 5% CO2. The mycoplasma-negative cells were used for all experiments and mycoplasma test was done regularly using e-Myco™ VALiD Mycoplasma PCR Detection Kit (iNtRON biotechnology, #25239). CT26 cells (2×10^5 cells/mouse) or EMT6 cells (5×10^5 cells/mouse) in PBS were implanted subcutaneously into the shaved right flank. Tumor volumes and body weights were measured every 3 to 4 days, and the tomor volumes were calculated according to the formula 0.5×(length)×(width)^2.
Specifically, to determine in vivo efficacy of STING agonist compounds (Compound 214 and 221) in CT26 syngeneic mouse model, when tumor volume reached 70 mm^3, each compound was given at 1.5 mg/kg intravenously every 3 or 4 days (total three times). […] To determine in vivo efficacy of STING agonist compound (Compound 313) in EMT6 syngeneic mouse model, when tumor volume 100 mm^3, the compound was given at the indicated doses intravenously once weekly for 3 weeks except for the dose at 0.05 mg/kg twice a week.
A syngeneic system was used to assess the ability of the STING agonist compounds to induce immune responses and drive an anti-tumor immune response. In both CT26 and EMT6 syngeneic models, the STING agonist compounds remarkably controlled tumor growth at various doses (FIGS. 7 to 12).
Compound 313 also eliminated tumors in all groups (1 out of 5 for 0.05 mg/kg, 2 out of 5 for 0.1 mg/kg, 5 out of 5 for both 0.3 and 0.6 mg/kg) in EMT6 model (FIG. 12).

T1 sequence (Q86WV6 whole entry H232R): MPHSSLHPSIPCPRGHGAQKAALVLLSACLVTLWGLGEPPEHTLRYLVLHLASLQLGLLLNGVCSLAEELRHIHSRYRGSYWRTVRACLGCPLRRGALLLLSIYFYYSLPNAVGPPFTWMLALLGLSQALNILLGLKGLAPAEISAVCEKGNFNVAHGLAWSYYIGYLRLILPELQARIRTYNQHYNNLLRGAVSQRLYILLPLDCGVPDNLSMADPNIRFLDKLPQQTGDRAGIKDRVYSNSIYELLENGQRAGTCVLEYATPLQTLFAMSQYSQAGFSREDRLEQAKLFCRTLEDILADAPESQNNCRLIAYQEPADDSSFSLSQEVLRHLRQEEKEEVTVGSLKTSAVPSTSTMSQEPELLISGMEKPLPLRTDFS

EC50 (hSTING-WT (R232)): 68.3 nM
EC50 (hSTING H232 variant): 216 nM
Structure (SMILES): CCn1nc(C)cc1C(=O)Nc1nc2cc(C(N)=O)cc(OC/C=C/Cn3cc(NC(=O)OCc4ccc(O[C@@H]5O[C@H](C(=O)O)[C@@H](O)[C@H](O)[C@H]5O)c(C(=O)NCCOCCOCCN(C)C)c4)cn3)c2n1C/C=C/Cn1c(NC(=O)c2cc(C)nn2CC)nc2cc(C(N)=O)cc(OCCCC(=O)O)c21 [Compound 313]
co-stimulatory molecule CD86 on cell surface (Human THP-1 cells; FIG. 3A): Up-regulation
MHC class II molecule HLA-DR on cell surface (Human THP-1 cells; FIG. 3B): Up-regulation
CC50 at 72 h [1]: 98 nM
mice with tumors eliminated (EMT6 cells; 0.05 mg/kg intravenously twice a week): 1 out of 5
mice with tumors eliminated (EMT6 cells; 0.1 mg/kg intravenously once weekly for 3 weeks): 2 out of 5
mice with tumors eliminated (EMT6 cells; 0.3 mg/kg intravenously once weekly for 3 weeks): 5 out of 5
mice with tumors eliminated (EMT6 cells; 0.6 mg/kg intravenously once weekly for 3 weeks): 5 out of 5
